These are literature values, as cited in PubChem BioAssay AID1259410 (Chemical Carcinogenesis Research Information System (CCRIS), 2018).

The test system of this series is rodent tumor promotion studies, tumor incidence. The experiment in a line: CCRIS tumor promotion studies.

Regarding `CN(C)CCOc1ccc(/C(=C(/CCCl)c2ccccc2)c2ccccc2)cc1`, the outcome (Carcinogen: DIETHYLNITROSAMINE, 55-18-5, Doses [Carcinogen]: 2.5 UG/G BW IN SALINE ONCE, Doses [Promoter]: 0, 0.5-1 MG IN PELLET IMPLANTED 1/MONTH FOR 30 WK BEGINNING 30 D POST CARCINOGEN TREATMENT (STUDY DURATION: 240 D), Route [Carcinogen]: INTRAPERITIONEAL, Route [Promoter]: SUBCUTANEOUS, Species: MOUSE, Strain/Sex: B6C3F1/FEMALE) is given as “liver: tumor”.

Turning to `CC(C)(C)c1ccc(O)c(O)c1`, the outcome (Carcinogen: N-METHYL-N'-NITRO-N-NITROSOGUANIDINE, 70-25-7, Doses [Carcinogen]: 150 MG/KG IN DMSO ONCE, Doses [Promoter]: 0, 1.5% IN DIET FOR 51 WK BEGINNING 1 WK AFTER CARCINOGEN DOSE (STUDY DURATION: 52 WK), Route [Carcinogen]: GAVAGE, Route [Promoter]: ORAL, Species: RAT, Strain/Sex: F344/MALE) was “forestomach: squamous cell carcinoma”.

For `CNc1ccccc1C(=O)O[C@@H]1[C@@H](C)[C@@]2(O)[C@@H](C=C(CO)C[C@]3(O)C(=O)C(C)=C[C@@H]23)[C@@H]2C(C)(C)[C@]12OC(C)=O`, under “Carcinogen: 7,12-DIMETHYLBENZ[A]ANTHRACENE, 57-97-6, Doses [Carcinogen]: 10 NMOL ONCE, Doses [Promoter]: 0, 3.3 NMOL 2/WK FOR 20 WK (STUDY DURATION: 20 WK), Route [Carcinogen]: DERMAL, Route [Promoter]: DERMAL, Species: MOUSE, Strain/Sex: SENCAR”, the outcome is “skin: papilloma”.

As for `CCCCCCCCCCCCCC(=O)OCC1=C[C@H]2C3C(C)(C)C3(OC(C)=O)[C@H](OC(=O)CCCCCCCCCCCCC)[C@@H](C)[C@]2(O)[C@@H]2C=C(C)C(=O)[C@]2(O)C1` (stereo partly drawn), the outcome (Carcinogen: 7,12-DIMETHYLBENZ[A]ANTHRACENE, 57-97-6, Doses [Carcinogen]: 100 NMOL ONCE, Doses [Promoter]: 0, 50, 100, 200 NMOL 2/WK FOR 24 WK BEGINNING 1 WK POST CARCINOGEN DOSE (STUDY DURATION: 25 WK), Doses [Promoter]: 0, 50, 100, 200 NMOL 2/WK FOR 24 WK BEGINNING 1 WK POST CARCINOGEN DOSE (STUDY DURATION: 25 WK), Route [Carcinogen]: DERMAL, Route [Promoter]: DERMAL, Species: MOUSE, Strain/Sex: NMRI/FEMALE) is “skin: tumor”.

Take `O=C(O)C(Cl)Cl`: the outcome runs as follows: (Carcinogen: N-METHYL-N-NITROSOUREA, 684-93-5, Doses [Carcinogen]: 25 MG/KG IN STERILE SALINE ONCE, Doses [Promoter]: 0, 25 MMOL/L IN DRINKING WATER FOR 44 WK BEGINNING 2 WK POST CARCINOGEN DOSE (STUDY DURATION: 46 WK), Route [Carcinogen]: INTRAPERITONEAL, Route [Promoter]: ORAL, Species: MOUSE, Strain/Sex: B6C3F1/FEMALE) “liver: adenoma”; (Carcinogen: N-METHYL-N-NITROSOUREA, 684-93-5, Doses [Carcinogen]: 25 MG/KG ONCE AT 15 D OF AGE, Doses [Promoter]: 0, 20 NMOL/L IN DRINKING WATER FOR 31 WK BEGINNING AT 7 WK OF AGE (STUDY DURATION: 31 WK), Route [Carcinogen]: INTRAPERITONEAL, Route [Promoter]: ORAL, Species: MOUSE, Strain/Sex: B6C3F1/FEMALE) “liver: adenoma”; (Carcinogen: N-METHYL-N-NITROSOUREA, 684-93-5, Doses [Carcinogen]: 25 MG/KG ONCE AT 15 D OF AGE, Doses [Promoter]: 0, 20 NMOL/L IN DRINKING WATER FOR 52 WK BEGINNING AT 7 WK OF AGE (STUDY DURATION: 52 WK), Route [Carcinogen]: INTRAPERITONEAL, Route [Promoter]: ORAL, Species: MOUSE, Strain/Sex: B6C3F1/FEMALE) “liver: adenoma”.

Turning to `CNC(=O)Oc1ccccc1OC(C)C`, the outcome is, setting by setting: (Carcinogen: 7,12-DIMETHYLBENZ[A]ANTHRACENE, 57-97-6, Doses [Carcinogen]: 52 UG IN 100 µL ACETONE ONCE, Doses [Promoter]: 0, 100 MG/KG BW IN 100 µL ACETONE 3/WK FOR 51 WK BEGINNING 1/WK POST CARCINOGEN DOSE (STUDY DURATION: 52 WK), Route [Carcinogen]: DERMAL, Route [Promoter]: DERMAL, Species: MOUSE, Strain/Sex: SWISS/FEMALE) “skin: tumor”; (Carcinogen: 7,12-DIMETHYLBENZ[A]ANTHRACENE, 57-97-6, Doses [Carcinogen]: 52 UG IN 100 µL ACETONE ONCE, Doses [Promoter]: 0, 100 MG/KG BW IN 100 µL ACETONE 3/WK FOR 51 WK BEGINNING 1 WK POST CARCINOGEN DOSE (STUDY DURATION: 52 WK), Route [Carcinogen]: DERMAL, Route [Promoter]: DERMAL, Species: MOUSE, Strain/Sex: SWISS/MALE) “skin: tumor”.

As to `COc1cc([C@@H]2Oc3cc([C@H]4Oc5cc(O)cc(O)c5C(=O)[C@@H]4O)ccc3O[C@H]2CO)ccc1O`, the outcome (Carcinogen: 1-Methyl-1-nitrosourea, 684-93-5, Doses [Carcinogen]: 50 mg/lg once 30 days after initial silymarin dose, Doses [Promoter]: 0, 0.03, 0.1, 0.3, 1% (w/w) in diet for 140 d beginning at 21 d of age, Doses [Promoter]: 0, 0.03, 0.1, 0.3, 1% (w/w) in diet for 140 d beginning at 21 d of age, Route [Carcinogen]: Intraperitoneal, Route [Promoter]: Oral, Species: Rat, Strain/Sex: Sprague-Dawley/Female (30/27), (30/25), (30/27), (30/23), Strain/Sex: Sprague-Dawley/Female (30/27), (30/25), (30/27), (30/23)) is given as “mammary gland: tumors. silymarin demonstrated a slight enhancement of mammary ca”.

In the case of `C[C@H](CCC(=O)O)[C@H]1CC[C@H]2[C@@H]3CC[C@@H]4C[C@H](O)CC[C@]4(C)[C@H]3C[C@H](O)[C@]12C`, the outcome reads like this: (Carcinogen: AZOXYMETHANE, 25843-45-2, Doses [Carcinogen]: 7.4 MG/KG BW/WK FOR 5 WK, Doses [Promoter]: 0, 0.3% OF CHOW PELLETS FOR 45 WK BEGINNING FROM START OF ADMINISTRATION OF CARCINOGEN (STUDY DURATION: 45 WK), Route [Carcinogen]: SUBCUTANEOUS, Route [Promoter]: ORAL, Species: RAT, Strain/Sex: WISTAR/MALE) “colon: tumor”; (Carcinogen: DIETHYLNITROSAMINE, 55-18-5, 2-(ACETYLAMINO)FLUORENE, 6292-55-3, Carcinogen: DIETHYLNITROSAMINE, 55-18-5, 2-(ACETYLAMINO)FLUORENE, 6292-55-3, Doses [Carcinogen]: 200 MG/KG DEN FOLLOWED 2 WK LATER BY 0.03% 2AAF IN DIET FOR 2 WK PLUS 2 ML/KG CCL4 IN THE MIDDLE OF TREATMENT, Doses [Promoter]: 0.5% IN DIET BEGINNING 1 WK POST CARCINOGEN TREATMENT AND CONTINUING FOR DURATION OF TREATMENT (STUDY DURATION: 35 WK), Route [Carcinogen]: INTRAPERITONEAL, ORAL, Route [Promoter]: ORAL, Species: RAT, Strain/Sex: WISTAR/MALE) “liver: hepatocellular carcinoma or cholangiocarcinoma”; (Carcinogen: DIETHYLNITROSAMINE, 55-18-5, 2-ACETYLAMINO-FLUORENE, 53-96-3, CARBON TETRACHLORIDE, 56-23-5, Carcinogen: DIETHYLNITROSAMINE, 55-18-5, 2-ACETYLAMINO-FLUORENE, 53-96-3, CARBON TETRACHLORIDE, 56-23-5, Doses [Carcinogen]: 200 NMOL DEN ONCE FOLLOWED 2 WK LATER BY 0.03% 2AAF IN DIET PLUS 2 ML/MG CC14 IN THE MIDDLE OF 2AAF TREATMENT OF 3 WK, Doses [Promoter]: 0, 0.5% IN DIET BEGINNING POST CARCINOGEN TREATMENT AND CONTINUING FOR 30 WK (STUDY DURATION: 35 WK), Route [Carcinogen]: INTRAPERITONEAL, ORAL, Route [Carcinogen]: INTRAPERITONEAL, ORAL, Route [Promoter]: ORAL, Species: RAT, Strain/Sex: WISTAR/MALE) “liver: tumor”; (Carcinogen: N-METHYL-N-AMYLNITROSAMINE, 13256-07-0, Doses [Carcinogen]: 0.003% IN DRINKING WATER FOR 8 WK FOLLOWED BY TAP WATER FOR 20 WK, Doses [Promoter]: 0, 0.2% IN DIET BEGINNING POST CARCINOGEN TREATMENT AND CONTINUING FOR 20 WK (STUDY DURATION: 28 WK), Route [Carcinogen]: ORAL, Route [Promoter]: ORAL, Species: RAT, Strain/Sex: WISTAR/MALE) “esophagus: papilloma”; (Carcinogen: N-METHYL-N-AMYLNITROSAMINE, 13256-07-0, Doses [Carcinogen]: 0.003% IN DRINKING WATER FOR 8 WK FOLLOWED BY TAP WATER FOR 20 WK, Doses [Promoter]: 0, 0.2% IN DIET FOR 8 WK SIMULTANEOUSLY WITH CARCINOGEN TREATMENT (STUDY DURATION: 28 WK), Route [Carcinogen]: ORAL, Route [Promoter]: ORAL, Species: RAT, Strain/Sex: WISTAR/MALE) “esophagus: papilloma”; (Carcinogen: N-METHYL-N-AMYLNITROSAMINE, 13256-07-0, Doses [Carcinogen]: 0.003% IN DRINKING WATER FOR 8 WK FOLLOWED BY TAP WATER FOR 20 WK, Doses [Promoter]: 0, 0.2% IN DIET FOR DURATION OF STUDY (STUDY DURATION: 28 WK), Route [Carcinogen]: ORAL, Route [Promoter]: ORAL, Species: RAT, Strain/Sex: WISTAR/MALE) “esophagus: carcinoma, papilloma”. Further, where the note is “Doses [Carcinogen]: IR, Route [Carcinogen]: RECTAL, Route [Promoter]: RECTAL, Species: RAT, Strain/Sex: FEMALE”, the outcome is on record as “colon”.

As to `O=c1cc(CO)occ1O`, the outcome (Carcinogen: N-NITROSOBIS(2-HYDROXYPROPYL)AMINE;53609-64-6, Doses [Carcinogen]: 2000 MG/KG BW ONCE, Doses [Promoter]: 0, 0.002%, 0.008%, 0.03%, 0.125%, 0.5%, 2% IN DIET FOR 20 WK BEGINNING 1 WK POST CARCINOGEN TREATMENT (STUDY DURATION: 2, Doses [Promoter]: 0, 0.002%, 0.008%, 0.03%, 0.125%, 0.5%, 2% IN DIET FOR 20 WK BEGINNING 1 WK POST CARCINOGEN TREATMENT (STUDY DURATION: 2, Route [Carcinogen]: SUBCUTANEOUS, Route [Promoter]: ORAL, Species: RAT, Strain/Sex: F344/MALE) was “thyroid gland: adenoma, carcinoma”.
